Results taken from PubChem BioAssay AID1918957 (Molecular Pharmacology Branch, DTP, NCI, 2023).
Calls of active or inactive are those of the source. How the source made its calls: active means viability on the fitted dose curve at most 10% of control; inactive means the rest.

Test system: NCI-H1876 complex spheroid viability
Assay: Anticancer human tumor NCI-H1876 cell line growth inhibition [LSD1];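 on IC50: spheroids exposed to compounds for one week before readout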;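 on viability, T/C: spheroids exposed to compounds for one week before readout; 100% = DMSO vehicle-treated spheroids so lower means fewer viable cells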
Settings: for IC50: curve of first compound; for viability, T/C: stronger effect = lower value
How it was run: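 Multicellular complex spheroids of tumor cells with human endothelial cells (HUVEC) and mesenchymal stem cells; the LSD1 inhibitor iadademstat was combined with standard-of-care or investigational agents. Top concentration at or near clinical Cmax, half-log dilutions; final DMSO ≤0.25%.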

[1] = second compound 0.1 µM, first compound 0.00316 µM
[2] = second compound 0.1 µM, first compound 0.01 µM
[3] = second compound 0.1 µM, first compound 0.0316 µM
[4] = second compound 0.1 µM, first compound 0.1 µM
[5] = second compound 0.316 µM, first compound 0.00316 µM
[6] = second compound 0.316 µM, first compound 0.01 µM
[7] = second compound 0.316 µM, first compound 0.0316 µM
[8] = second compound 0.316 µM, first compound 0.1 µM
[9] = second compound 1 µM, first compound 0.00316 µM
[10] = second compound 1 µM, first compound 0.01 µM
[11] = second compound 1 µM, first compound 0.0316 µM
[12] = second compound 1 µM, first compound 0.1 µM
[13] = second compound 3.16 µM, first compound 0.00316 µM
[14] = second compound 3.16 µM, first compound 0.01 µM
[15] = second compound 3.16 µM, first compound 0.0316 µM
[16] = second compound 3.16 µM, first compound 0.1 µM
[17] = second compound 10 µM, first compound 0.00316 µM
[18] = second compound 10 µM, first compound 0.01 µM
[19] = second compound 10 µM, first compound 0.0316 µM
[20] = second compound 10 µM, first compound 0.1 µM

CC[C@@]1(O)C(=O)OCc2c1cc1n(c2=O)Cc2cc3c(CN(C)C)c(O)ccc3nc2-1 + NC1CCC(NC2CC2c2ccccc2)CC1
1.61 nM: IC50 (second compound 0.1 µM)
2.18 nM: IC50 (second compound 3.16 µM)
2.15 nM: IC50 (second compound 0.316 µM)
2.14 nM: IC50 (second compound 1 µM)
inactive: viability, T/C (second compound 0.1 µM, first compound 0.000316 µM) 105% | outcome (second compound 0.1 µM, first compound 0.001 µM) | viability, T/C [1] 33.1% | viability, T/C [2] 23.1% | viability, T/C [3] 12.1% | viability, T/C [4] 16.7% | viability, T/C (second compound 0.316 µM, first compound 0.000316 µM) 110% | viability, T/C (second compound 0.316 µM, first compound 0.001 µM) 94.2% | viability, T/C [5] 27.5% | viability, T/C [6] 29.9% | viability, T/C [7] 17.3% | viability, T/C [8] 14.7% | viability, T/C (second compound 1 µM, first compound 0.000316 µM) 113% | viability, T/C (second compound 1 µM, first compound 0.001 µM) 92.3% | viability, T/C [9] 27.6% | viability, T/C [10] 31.8% | viability, T/C [11] 18.4% | viability, T/C [12] 8.81% | viability, T/C (second compound 3.16 µM, first compound 0.000316 µM) 112% | viability, T/C (second compound 3.16 µM, first compound 0.001 µM) 102% | viability, T/C [13] 25% | viability, T/C [14] 19.3% | viability, T/C [15] 19% | viability, T/C [16] 9.21% | viability, T/C (second compound 10 µM, first compound 0.000316 µM) 112% | viability, T/C (second compound 10 µM, first compound 0.001 µM) 90.3% | viability, T/C [17] 24.2% | viability, T/C [18] 24.3% | viability, T/C [19] 20% | viability, T/C [20] 19.4%
2.02 nM: IC50 (second compound 10 µM)

COc1cc(Nc2ncc3c(n2)-c2ccc(Cl)cc2C(c2c(F)cccc2OC)=NC3)ccc1C(=O)O + NC1CC1c1ccc(-c2cccc(O)c2)cc1
28.5 nM: IC50 (second compound 0.1 µM)
35.9 nM: IC50 (second compound 1 µM)
41.2 nM: IC50 (second compound 10 µM)
37 nM: IC50 (second compound 0.316 µM)
30.1 nM: IC50 (second compound 3.16 µM)
inactive: viability, T/C [1] 69.2% | viability, T/C [2] 61.6% | viability, T/C [3] 48.2% | viability, T/C [4] 35.7% | viability, T/C (second compound 0.1 µM, first compound 0.316 µM) 30.2% | viability, T/C (second compound 0.1 µM, first compound 1 µM) 16.3% | viability, T/C [5] 64.9% | viability, T/C [6] 64.5% | viability, T/C [7] 50.2% | viability, T/C [8] 37.5% | viability, T/C (second compound 0.316 µM, first compound 0.316 µM) 26% | viability, T/C (second compound 0.316 µM, first compound 1 µM) 15.8% | viability, T/C [9] 78.4% | viability, T/C [10] 62.1% | viability, T/C [11] 51.5% | viability, T/C [12] 40.5% | viability, T/C (second compound 1 µM, first compound 0.316 µM) 27.1% | viability, T/C (second compound 1 µM, first compound 1 µM) 16.2% | viability, T/C [13] 65.9% | viability, T/C [14] 58.4% | viability, T/C [15] 49.8% | viability, T/C [16] 38.5% | viability, T/C (second compound 3.16 µM, first compound 0.316 µM) 27.9% | viability, T/C (second compound 3.16 µM, first compound 1 µM) 15% | viability, T/C [17] 64.3% | viability, T/C [18] 62.1% | viability, T/C [19] 53.1% | viability, T/C [20] 38.7% | viability, T/C (second compound 10 µM, first compound 0.316 µM) 31.1% | viability, T/C (second compound 10 µM, first compound 1 µM) 17.2%

Nc1ncn(C2CC(O)C(CO)S2)c(=O)n1 (stereo not given) + NC1CCC(NC2CC2c2ccccc2)CC1
inactive: viability, T/C (second compound 0.1 µM, first compound 0.000949 µM) 106% | viability, T/C (second compound 0.1 µM, first compound 0.003 µM) 100% | viability, T/C (second compound 0.1 µM, first compound 0.00949 µM) 92.6% | viability, T/C (second compound 0.1 µM, first compound 0.03 µM) 87.9% | viability, T/C (second compound 0.1 µM, first compound 0.0949 µM) 84.5% | viability, T/C (second compound 0.1 µM, first compound 0.3 µM) 70.7% | viability, T/C (second compound 0.316 µM, first compound 0.000949 µM) 105% | viability, T/C (second compound 0.316 µM, first compound 0.003 µM) 113% | viability, T/C (second compound 0.316 µM, first compound 0.00949 µM) 98.5% | viability, T/C (second compound 0.316 µM, first compound 0.03 µM) 99.2% | viability, T/C (second compound 0.316 µM, first compound 0.0949 µM) 85.7% | viability, T/C (second compound 0.316 µM, first compound 0.3 µM) 67.8% | viability, T/C (second compound 1 µM, first compound 0.000949 µM) 109% | viability, T/C (second compound 1 µM, first compound 0.003 µM) 117% | viability, T/C (second compound 1 µM, first compound 0.00949 µM) 99.2% | viability, T/C (second compound 1 µM, first compound 0.03 µM) 93.4% | viability, T/C (second compound 1 µM, first compound 0.0949 µM) 85.2% | viability, T/C (second compound 1 µM, first compound 0.3 µM) 64.1% | viability, T/C (second compound 3.16 µM, first compound 0.000949 µM) 119% | viability, T/C (second compound 3.16 µM, first compound 0.003 µM) 113% | viability, T/C (second compound 3.16 µM, first compound 0.00949 µM) 105% | viability, T/C (second compound 3.16 µM, first compound 0.03 µM) 91.5% | viability, T/C (second compound 3.16 µM, first compound 0.0949 µM) 81.3% | viability, T/C (second compound 3.16 µM, first compound 0.3 µM) 63.2% | viability, T/C (second compound 10 µM, first compound 0.000949 µM) 118% | viability, T/C (second compound 10 µM, first compound 0.003 µM) 108% | viability, T/C (second compound 10 µM, first compound 0.00949 µM) 98.8% | viability, T/C (second compound 10 µM, first compound 0.03 µM) 96.9% | viability, T/C (second compound 10 µM, first compound 0.0949 µM) 81.1% | viability, T/C (second compound 10 µM, first compound 0.3 µM) 57%
> 300 nM: IC50 (second compound 0.1 µM) | IC50 (second compound 0.316 µM) | IC50 (second compound 1 µM) | IC50 (second compound 3.16 µM) | IC50 (second compound 10 µM)
